Earlier results, collected in patent US20030199483A1, “Aldosterone receptor antagonist and alpha-adrenergic modulating agent combination therapy for prevention or treatment of pathogenic conditions” (priority 2002, published 2003).

System: myocardial fibrosis in animal models

For `CC(=O)S[C@@H]1CC2=CC(=O)CC[C@]2(C)[C@H]2CC[C@@]3(C)[C@@H](CC[C@@]34CCC(=O)O4)[C@H]12` [spironolactone, 17-hydroxy-7α-mercapto-3-oxo-17α-pregn-4-ene-21-carboxylic acid γ-lactone acetate], the myocardial fibrosis (D. Klug et al 1993) is given as “prevents myocardial fibrosis” and the fibrosis (irrespective of the development of left ventricular hypertrophy and the presence of hypertension, C. G. Brilla et al 1993) is given as “prevent fibrosis”.
